Reference: US10945992B1, “Dosage forms of rofecoxib and related methods” (Tremeau Pharmaceuticals, Inc., priority 2019, dated 2021)
Read-outs that look alike come from different tables or passages of the source.

Experiment: TRM-201-PK-102 single-dose four-period crossover pharmacokinetic study, fasted healthy subjects
Assay type: in vivo, human
Conditions: human, plasma, oral
Method: A Single-Dose, Open-Label, Phase 1, Four-Period Crossover Pharmacokinetic Study of TRM-201 (Rofecoxib) 12.5 mg, 17.5 mg, 20 mg and 25 mg Administered to Healthy Subjects in a Fasting State, with Comparison to Historical Pharmacokinetic Parameters of Previously Marketed Rofecoxib (“TRM-201-PK-102” or “102 PK Study”)
This was a single-center, open-label four-period crossover PK study of TRM-201. The study included 24 subjects who received TRM-201 as a single dose of 12.5 mg, 17.5 mg, 20 mg and 25 mg to assess the PK of TRM-201 in healthy volunteers under fasted conditions. Subjects were randomized to one of four treatment sequences. The PK data from the current study along with the data from the TRM-201-PK-101 study (Example 4) was used to compare to historical pharmacokinetic parameters of previously marketed rofecoxib, all in a fasted state.
In each of the four dosing periods, subjects fasted overnight for at least 10 hours before study drug dosing. While fasting, subjects had nothing to eat and only water to drink. Water was permitted as desired, except for the period between 1 hour before and 1 hour after study drug dosing (excepting as permitted for dosing). After the 2-hour PK blood sample, subjects were allowed one 250-mL cup of clear apple juice. After the 4-hour PK blood sample, subjects were served a light lunch. Following the light lunch, subjects received standardized meals according to the clinic's standard procedures that were scheduled at consistent times and at least 15 minutes before or 15 minutes after PK sampling time points. Blood was withdrawn for PK analysis at predefined time points. For each dosing period the last time point was 120 hours after dosing with study drug (Day 6). After the 120 hour PK sample, the EOP procedures was completed, subjects remained in-clinic for the in-between dose period day (Days 7, 14, and 21) and began the next dosing period starting with an overnight fast for at least 10 hours on Day −1 of the subsequent dosing period. Pharmacokinetic and safety endpoints were evaluated.
The study drug, TRM-201, was an immediate-release tablet that contained 12.5 mg rofecoxib, 17.5 mg rofecoxib, 20 mg rofecoxib or 25 mg rofecoxib. The 7.25-mm diameter tablets were off-white, round, and uncoated with no markings. TRM-201 tablets were for oral administration.
For each sample, approximately 3 mL of blood were drawn. The samples were obtained by a straight stick or via an in-dwelling intravenous (IV) catheter in a forearm vein. Additional details for the collection, processing, storage, and shipping of PK samples were provided in the study manual.
Pharmacokinetic samples will be analyzed using a validated assay for rofecoxib in human plasma. Assay results and validation details will be provided in a separate bioanalytical report. The following PK parameters for rofecoxib will be calculated as primary endpoints using standard noncompartmental methods: AUC0-∞ and Cmax. Secondary endpoints include Tmax, and t1/2. Additional PK parameters (e.g., CL/F, and Vd/F) will also be calculated using standard noncompartmental methods.
Individual plasma concentrations for rofecoxib and PK sampling time deviation data will be presented in a data listing. Plasma concentration data will be summarized by time point using the following descriptive statistics: number of subjects, arithmetic mean, SD, coefficient of variation (CV), geometric mean, natural-log-scale SD, geometric CV, median, minimum, and maximum. Individual plasma concentration versus actual time profiles were presented on both linear and semilogarithmic scales. Additionally, arithmetic mean concentration versus scheduled time profiles were presented on linear scales and geometric means on semilogarithmic scales.
The PK parameters of rofecoxib were analyzed based on the actual sampling times. […]

[1] = 20 mg, read-out: arithmetic mean plasma concentration
[2] = 20 mg, read-out: geometric mean plasma concentration

CS(=O)(=O)c1ccc(C2=C(c3ccccc3)C(=O)OC2)cc1 [TRM-201, 4-[4-(methylsulfonyl)phenyl]-3-phenyl-2(5H)-furanone]
AUC(0-inf) (20 mg, 102 study only, read-out: arithmetic mean AUC0-∞): 3750 ng·h/mL | Cmax (20 mg, 102 study only, read-out: arithmetic mean Cmax): 277 ng/mL | AUC(0-inf) (20 mg, 102 study only, read-out: geometric mean AUC0-∞): 3550 ng·h/mL | Cmax (20 mg, 102 study only, read-out: geometric mean Cmax): 259 ng/mL | AUC(0-inf) (20 mg, 102 study, 18-40 years, read-out: arithmetic mean AUC0-∞): 3580 ng·h/mL | Cmax (20 mg, 102 study, 18-40 years, read-out: arithmetic mean Cmax): 308 ng/mL | AUC(0-inf) (20 mg, 102 study, 18-40 years, read-out: geometric mean AUC0-∞): 3420 ng·h/mL | Cmax (20 mg, 102 study, 18-40 years, read-out: geometric mean Cmax): 289 ng/mL | AUC(0-inf) (20 mg, 102 study, 41-52 years, read-out: arithmetic mean AUC0-∞): 3730 ng·h/mL | Cmax (20 mg, 102 study, 41-52 years, read-out: arithmetic mean Cmax): 262 ng/mL | AUC(0-inf) (20 mg, 102 study, 41-52 years, read-out: geometric mean AUC0-∞): 3360 ng·h/mL | Cmax (20 mg, 102 study, 41-52 years, read-out: geometric mean Cmax): 242 ng/mL | AUC(0-inf) (20 mg, 102 study, 53-60 years, read-out: arithmetic mean AUC0-∞): 3940 ng·h/mL | Cmax (20 mg, 102 study, 53-60 years, read-out: arithmetic mean Cmax): 260 ng/mL | AUC(0-inf) (20 mg, 102 study, 53-60 years, read-out: geometric mean AUC0-∞): 3880 ng·h/mL | Cmax (20 mg, 102 study, 53-60 years, read-out: geometric mean Cmax): 249 ng/mL | AUC(0-inf) (20 mg, 102 study, Black or African-American subjects, read-out: arithmetic mean AUC0-∞): 3380 ng·h/mL | Cmax (20 mg, 102 study, Black or African-American subjects, read-out: arithmetic mean Cmax): 298 ng/mL | AUC(0-inf) (20 mg, 102 study, Black or African-American subjects, read-out: geometric mean AUC0-∞): 3300 ng·h/mL | Cmax (20 mg, 102 study, Black or African-American subjects, read-out: geometric mean Cmax): 295 ng/mL | AUC(0-inf) (20 mg, 102 study, Hispanic or Latino subjects, read-out: arithmetic mean AUC0-∞): 3840 ng·h/mL | Cmax (20 mg, 102 study, Hispanic or Latino subjects, read-out: arithmetic mean Cmax): 281 ng/mL | AUC(0-inf) (20 mg, 102 study, Hispanic or Latino subjects, read-out: geometric mean AUC0-∞): 3630 ng·h/mL | Cmax (20 mg, 102 study, Hispanic or Latino subjects, read-out: geometric mean Cmax): 258 ng/mL | AUC(0-inf) (20 mg, 102 study, White subjects, read-out: arithmetic mean AUC0-∞): 3850 ng·h/mL | Cmax (20 mg, 102 study, White subjects, read-out: arithmetic mean Cmax): 271 ng/mL | AUC(0-inf) (20 mg, 102 study, White subjects, read-out: geometric mean AUC0-∞): 3610 ng·h/mL | Cmax (20 mg, 102 study, White subjects, read-out: geometric mean Cmax): 250 ng/mL | AUC(0-inf) (20 mg, 102 study, body weight 47-70 kg, read-out: arithmetic mean AUC0-∞): 3650 ng·h/mL | Cmax (20 mg, 102 study, body weight 47-70 kg, read-out: arithmetic mean Cmax): 336 ng/mL | AUC(0-inf) (20 mg, 102 study, body weight 47-70 kg, read-out: geometric mean AUC0-∞): 3340 ng·h/mL | Cmax (20 mg, 102 study, body weight 47-70 kg, read-out: geometric mean Cmax): 307 ng/mL | AUC(0-inf) (20 mg, 102 study, body weight 70.1-77 kg, read-out: arithmetic mean AUC0-∞): 4500 ng·h/mL | Cmax (20 mg, 102 study, body weight 70.1-77 kg, read-out: arithmetic mean Cmax): 259 ng/mL | AUC(0-inf) (20 mg, 102 study, body weight 70.1-77 kg, read-out: geometric mean AUC0-∞): 4400 ng·h/mL | Cmax (20 mg, 102 study, body weight 70.1-77 kg, read-out: geometric mean Cmax): 248 ng/mL | AUC(0-inf) (20 mg, 102 study, body weight 77.1-90 kg, read-out: arithmetic mean AUC0-∞): 3250 ng·h/mL | Cmax (20 mg, 102 study, body weight 77.1-90 kg, read-out: arithmetic mean Cmax): 238 ng/mL | AUC(0-inf) (20 mg, 102 study, body weight 77.1-90 kg, read-out: geometric mean AUC0-∞): 3170 ng·h/mL | Cmax (20 mg, 102 study, body weight 77.1-90 kg, read-out: geometric mean Cmax): 231 ng/mL | AUC(0-inf) (20 mg, 102 study, non-Hispanic or non-Latino subjects, read-out: arithmetic mean AUC0-∞): 3660 ng·h/mL | Cmax (20 mg, 102 study, non-Hispanic or non-Latino subjects, read-out: arithmetic mean Cmax): 272 ng/mL | AUC(0-inf) (20 mg, 102 study, non-Hispanic or non-Latino subjects, read-out: geometric mean AUC0-∞): 3470 ng·h/mL | Cmax (20 mg, 102 study, non-Hispanic or non-Latino subjects, read-out: geometric mean Cmax): 260 ng/mL | concentration at 15 minutes [1]: 5.75 ng/mL | concentration at 15 minutes [2]: 1.16 ng/mL | concentration at 45 minutes [1]: 121 ng/mL | concentration at 45 minutes [2]: 72.6 ng/mL | AUC(0-inf) (25 mg, 102 study only, read-out: arithmetic mean AUC0-∞): 4630 ng·h/mL | Cmax (25 mg, 102 study only, read-out: arithmetic mean Cmax): 349 ng/mL | AUC(0-inf) (25 mg, 102 study only, read-out: geometric mean AUC0-∞): 4490 ng·h/mL | Cmax (25 mg, 102 study only, read-out: geometric mean Cmax): 341 ng/mL | AUC(0-inf) (25 mg, 102 study, 18-40 years, read-out: arithmetic mean AUC0-∞): 4140 ng·h/mL | Cmax (25 mg, 102 study, 18-40 years, read-out: arithmetic mean Cmax): 366 ng/mL | AUC(0-inf) (25 mg, 102 study, 18-40 years, read-out: geometric mean AUC0-∞): 4050 ng·h/mL | Cmax (25 mg, 102 study, 18-40 years, read-out: geometric mean Cmax): 356 ng/mL | AUC(0-inf) (25 mg, 102 study, 41-52 years, read-out: arithmetic mean AUC0-∞): 4810 ng·h/mL
